US5622839A (ZymoGenetics, Inc., priority 1995, dated 1997)

Target: T1, human calcitonin receptor (Homo sapiens, UniProt P30988)
T1 construct: Hollex encoded a protein of 474 amino acids; expressed in transfected cells; host or cells: BHK 570 / BHK/KZ10-20-48 (baby hamster kidney) stably transfected with pHollex
T1 sequence (P30988 25-474): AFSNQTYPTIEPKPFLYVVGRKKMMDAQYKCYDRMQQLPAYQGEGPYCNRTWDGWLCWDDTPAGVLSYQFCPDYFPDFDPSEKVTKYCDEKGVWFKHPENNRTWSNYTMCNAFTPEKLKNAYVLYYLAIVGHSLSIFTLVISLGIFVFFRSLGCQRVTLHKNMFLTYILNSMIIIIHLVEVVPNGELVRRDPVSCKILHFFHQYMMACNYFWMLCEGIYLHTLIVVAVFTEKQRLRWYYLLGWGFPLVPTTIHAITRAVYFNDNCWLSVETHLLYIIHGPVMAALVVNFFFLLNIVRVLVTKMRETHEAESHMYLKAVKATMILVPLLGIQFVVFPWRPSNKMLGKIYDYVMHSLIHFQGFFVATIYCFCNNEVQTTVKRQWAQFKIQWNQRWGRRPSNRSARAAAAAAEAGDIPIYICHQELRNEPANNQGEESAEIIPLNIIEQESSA
Assay: CRE-luciferase induction in BHK/KZ10-20-48 cells transfected with pHollex (Hollex1, Hollex2)
Assay type: cell-based
Settings: Hollex1 and Hollex2 clones; 4 h at 37° C.; FIG. 3 and FIG. 4
Description: This cell line permits the measurement of luciferase activity, adenylate cyclase activity and intracellular calcium concentrations in response to calcitonin binding to its receptor.
Plasmid KZ10 was transfected into BHK570 cells (available from ATCC as Accession no. CRL 10314) using the calcium phosphate precipitation method essentially as described by Graham and Van de Eb (Virol. 52: 456, 1973, which is incorporated by reference herein). The transfected cells were grown in growth medium (Dulbecco's modified Eagle's medium (DMEM) containing 10% fetal calf serum and 2.0 mm L-glutamine). After a few days in nonselective growth medium, the growth medium was replaced with methotrexate (MTX) selection medium (growth medium containing 250 nM MTX). The cells were then allowed to grow to confluency after which they were trypsinized and plated at limiting dilution into the wells of 96-well plates. […]
Induction was initiated by removing old medium from the wells and adding 100 μl of fresh growth medium and 100 μl of each 2× solution in triplicate sample wells. Uninduced levels were determined in triplicate wells to which 100 μl of DMEM containing 10% fetal calf serum was added. […]
Following induction, the medium was removed, and the wells were washed once with 200 μl/well PBS. […] The fold induction of luciferase for each agonist was calculated as follows: […]

Substance: salmon calcitonin
- fold induction of luciferase: 5-10 fold
